Measured values as given in patent US20230250070A1, “DIHYDROOXAZOLE AND THIOUREA DERIVATIVES MODULATING THE NLRP3 INFLAMMASOME PATHWAY” (AC IMMUNE SA, priority 2020, published 2023).

Key:
[1] = system: NLRP3 inflammasome pathway; experiment: NLRP3 inflammasome pathway activation assay, MSU stimulation, IL-1β release (AlphaLISA); type: cell-based; conditions: PMA-differentiated, LPS-primed human monocyte-like cells, MSU 150 µg/ml for 3 h
Method: (§1) The following assays were used to determine the inhibitory activity of test compounds on the NLRP3 inflammasome pathway using common stimuli Nigericin (Invivogen) or monosodium urate crystals (MSU) (Invivogen).
(§2) Human monocyte-like cells were cultured in RPMI-1640 Glutamax medium supplemented with 10% heat inactivated FCS and 50 U/ml penicillin-streptomycin (Life Technologies).
(§3) Human monocyte-like cells were seeded at 75000 per well in a 96-well plate and were differentiated overnight into macrophages with 10 ng/ml PMA (Phorbol Myristate Acetate). The following day, medium containing 10 ng/ml LPS (Lipopolysaccharide) were added. After 3 hours of LPS priming, concentrations of test compound in the range from 100 µM to 6 nM were added 30 min prior to NLRP3 inflammasome pathway stimulation with Nigericin 3.75 µM or MSU 150 µg/ml for 3 h.
(§4) For IL-1β quantification, supernatants were analyzed using AlphaLISA kits according to the manufacturer’s instructions (Perkin Elmer AlphaLISA AL220F). Briefly, in a 384-well OptiPlate™ microplate, 5 µl of sample was mixed, with 20 µl of AlphaLISA Anti-Analyte Acceptor beads (10 µg/mL final) and Biotinylated Antibody Anti-Analyte (1 nM final). Then, incubated 60 minutes at RT, then 25 µL of 2X SA-Donor beads (40 µg/mL final) were added and incubated 30 minutes at RT in the dark. Reading was done using an EnVision-Alpha Reader (PerkinElmer).
(§5) IC50(concentration corresponding to 50% inhibition) were determined using GraphPad Prism 8.

[2] = system: NLRP3 inflammasome pathway; experiment: NLRP3 inflammasome pathway activation assay, Nigericin stimulation, IL-1β release (AlphaLISA); type: cell-based; conditions: PMA-differentiated, LPS-primed human monocyte-like cells, Nigericin 3.75 µM for 3 h
Method: as §1, §2, §3, §4, §5

Compound	IC50 [1] [µM]	IC50 ([2]; Homo sapiens, 3 h) [µM]	IC50 [2] [µM]
CCOC(=O)C1(c2ccccc2)CN=C(Nc2c3c(c(F)c4c2CCC4)CCC3)O1 (racemic) [Example 30, ethyl 2-((8-fluoro-1,2,3,5,6,7-hexahydro-s-indacen-4-yl)amino)-5-phenyl-4,5-dihydrooxazole-5-carboxylate]	< 1	1 to 10	
CCOC(=O)C(O)(CNC(=S)Nc1c2c(cc3c1CCC3)CCC2)c1cc(C(C)(C)O)on1 (racemic) [Example 14, Ethyl 3-(3-(1,2,3,5,6,7-hexahydro-s-indacen-4-yl)thioureido)-2-hydroxy-2-(5-(2-hydroxypropan-2-yl)isoxazol-3-yl)propanoate]	< 1		< 1
CCOC(=O)C1(c2nccn2C)CN=C(Nc2c3c(cc4c2CCC4)CCC3)O1 (centres unmarked) [Example 4, Ethyl 2-((1,2,3,5,6,7-hexahydro-s-indacen-4-vl)amino)-5-(1-methyl-1H-imidazol-2-yl)-4,5-dihydrooxazole-5-carboxylate]	< 1		< 1
CCOC(=O)C1(c2nccn2C)CN=C(Nc2c3c(cc4c2CCC4)CCC3)O1 (centres unmarked) [Example 3, Ethyl 2-((1,2,3,5,6,7-hexahvdro-s-indacen-4-vl)amino)-5-(1-methyl-1H-imidazol-2-yl)-4,5-dihydrooxazole-5-carboxylate]	< 1	< 1	
CCOC(=O)C1(c2cc(C(C)(C)O)on2)OC(Nc2c3c(cc4c2CCC4)CCC3)=NC1C (racemic) [Example 52, ethyl 2-((1,2,3,5,6,7-hexahydro-s-indacen-4-yl)amino)-5-(5-(2-hydroxypropan-2-yl)isoxazol-3-yl)-4-methyl-4,5-dihydrooxazole-5-carboxylate]	1 to 10	< 1	
CCOC(=O)C(O)(CNC(=S)Nc1c2c(cc3c1CCC3)CCC2)c1cc(C(C)C)on1 (centres unmarked) [Example 46, ethyl 3-(3-(1,2,3,5,6,7-hexahydro-s-indacen-4-yl)thioureido)-2-hydroxy-2-(5-isopropylisoxazol-3-yl)propanoate]	1 to 10		< 1
2-((1,2,3,5,6,7-hexahydro-s-indacen-4-yl)amino)-5-(5-isopropylisoxazol-3-yl)-4,5-dihydrooxazole-5-carboxylate [Example 28]	< 1		1 to 10
CCOC(=O)C1(c2ccccn2)CN=C(Nc2c3c(cc4c2CCC4)CCC3)O1 (single isomer, unassigned) [Example 9, Ethyl 2-((1,2,3,5,6,7-hexahydro-s-indacen-4-yl)amino)-5-(pyridin-2-yl)-4,5-dihydrooxazole-5-carboxylate]	< 1		< 1
CCOC(=O)C1(c2ncccn2)CN=C(Nc2c3c(cc4c2CCC4)CCC3)O1 (racemic) [Example 50, ethyl 2-((1,2,3,5,6,7-hexahydro-s-indacen-4-yl)amino)-5-(pyrimidin-2-yl)-4,5-dihydrooxazole-5-carboxylate]	1 to 10	< 1	
CCOC(=O)C1(c2ccccc2)CN=C(Nc2c3c(cc4c2CCC4)CCC3)O1 (racemic) [Example 1, Ethyl 2-((1,2,3,5,6,7-hexahydro-s-indacen-4-yl)amino)-5-phenyl-4,5-dihydrooxazole-5-carboxylate]	< 1	< 1	
CC(C)(O)c1cc(C2(C(=O)O)CN=C(Nc3c4c(cc5c3CCC5)CCC4)O2)no1 (centres unmarked) [Example 22, 2-((1,2,3,5,6,7-hexahydro-s-indacen-4-yl)amino)-5-(5-(2-hydroxypropan-2-yl)isoxazol-3-yl)-4,5-dihydrooxazole-5-carboxylic Acid]	< 1	1 to 10	
CCOC(=O)C1(c2cccc(Cl)c2)CN=C(Nc2c3c(cc4c2CCC4)CCC3)O1 (single isomer, unassigned) [Example 13a, Ethyl 5-(3-chlorophenyl)-2-((1,2,3,5,6,7-hexahydro-s-indacen-4-yl)amino)-4,5-dihydrooxazole-5-carboxylate]	< 1		< 1
CCOC(=O)C1(c2ccc(OC)nc2)CN=C(Nc2c3c(cc4c2CCC4)CCC3)O1 (single isomer, unassigned) [Example 7, Ethyl 2-((1,2,3,5,6,7-hexahydro-s-indacen-4-yl)amino)-5-(6-methoxypyridin-3-yl)-4,5-dihydrooxazole-5-carboxylate]	< 1		< 1
CCOC(=O)C1(c2ccc(OC)nc2)CN=C(Nc2c3c(cc4c2CCC4)CCC3)O1 (centres unmarked) [Example 6, Ethyl 2-((1,2,3,5,6,7-hexahydro-s-indacen-4-yl)amino)-5-(6-methoxypyridin-3-yl)-4,5-dihydrooxazole-5-carboxylate]	< 1	< 1	
CCOC(=O)C1(c2cccnc2)CN=C(Nc2c3c(cc4c2CCC4)CCC3)O1 (centres unmarked) [Example 11a, Ethyl 2-((1,2,3,5,6,7-hexahydro-s-indacen-4-yl)amino)-5-(pyridin-3-yl)-4,5-dihvdrooxazole-5-carboxylate]	< 1	< 1	
CCOC(=O)C1(c2ccccn2)CN=C(Nc2c3c(cc4c2CCC4)CCC3)O1 (racemic) [Example 8, Ethyl 2-((1,2,3,5,6,7-hexahydro-s-indacen-4-yl)amino)-5-(pyridin-2-yl)-4,5-dihydrooxazole-5-carboxylate]	< 1	< 1	
Ethyl 2-((1,2,3,5,6,7-hexahydro-s-indacen-4-yl)amino)-5-(tetrahvdro-2H-pyran-4-yl)-4,5-dihydrooxazole-5-carboxylate [Example 12]	1 to 10		1 to 10
CCOC(=O)C1(c2ccc(Cl)cc2)CN=C(Nc2c3c(cc4c2CCC4)CCC3)O1 (racemic) [Example 10, Ethyl 5-(4-chlorophenyl)-2-((1,2,3,5,6,7-hexahydro-s-indacene-4-yl)amino)-4,5-dihydrooxazole-5-carboxylate]	1 to 10	1 to 10	
CCCCCOC(=O)C1(c2cc(C(C)(C)O)on2)CN=C(Nc2c3c(cc4c2CCC4)CCC3)O1 (racemic) [Example 79, pentyl 2-((1,2,3,5,6,7-hexahydro-s-indacen-4-yl)amino)-5-(5-(2-hydroxypropan-2-yl)isoxazol-3-yl)-4,5-dihydrooxazole-5-carboxylate]	< 1		
CCOC(=O)C1(c2nc(C(C)C)cs2)CN=C(Nc2c3c(cc4c2CCC4)CCC3)O1 (racemic) [Example 55, ethyl 2-((1,2,3,5,6,7-hexahydro-s-indacen-4-yl)amino)-5-(4-isopropylthiazol-2-yl)-4,5-dihydrooxazole-5-carboxylate]	< 1		
CC(C)OC(=O)C1(c2cc(C(C)(C)O)on2)CN=C(Nc2c3c(cc4c2CCC4)CCC3)O1 (racemic) [Example 17, isopropyl 2-((1,2,3,5,6,7-hexahydro-s-indacen-4-yl)amino)-5-(5-(2-hydroxypropan-2-yl)isoxazol-3-yl)-4,5-dihydrooxazole-5-carboxylate]	< 1		
CC(C)OC(=O)C1(c2ccon2)CN=C(Nc2c3c(cc4c2CCC4)CCC3)O1 (centres unmarked) [Example 56, Isopropyl 2-((1,2,3,5,6,7-hexahydro-s-indacen-4-vl)amino)-5-(isoxazol-3-yl)-4,5-dihvdrooxazole-5-carboxylate]	< 1		
COC(=O)C1(c2cc(OC)on2)CN=C(Nc2c3c(cc4c2CCC4)CCC3)O1 (racemic) [Example 48, methyl 2-((1,2,3,5,6,7-hexahydro-s-indacen-4-yl)amino)-5-(5-methoxyisoxazol-3-yl)-4,5-dihydrooxazole-5-carboxylate]	< 1		
